ChEMBL document CHEMBL1201862, “PubChem BioAssay data set” (2004)
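Each compound was tested at five concentrations against cells in 96-well plates for 48 hours. GI50: concentration for 50% inhibition of growth.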 The source made the active and inactive calls. Rule as the data show it: active = GI50 up to about 1.1 µM and inactive = higher.

Experiments:
Assay in all cases: NCI tumour cell line growth inhibition, 48 h
SK-OV-3 = tested on: SK-OV-3
OVCAR-5 = tested on: OVCAR-5
A498 = tested on: A498
COLO 205 = tested on: COLO 205
UACC-62 = tested on: UACC-62
DU-145 = tested on: DU-145
TK-10 = tested on: TK-10
UACC-257 = tested on: UACC-257
MOLT-4 = tested on: MOLT-4
LOX IMVI = tested on: LOX IMVI
SK-MEL-5 = tested on: SK-MEL-5
HT-29 = tested on: HT-29
786-0 = tested on: 786-0
SW-620 = tested on: SW-620
MDA-MB-231 = tested on: MDA-MB-231
KM12 = tested on: KM12
MCF7 = tested on: MCF7
NCI-H23 = tested on: NCI-H23
HOP-62 = tested on: HOP-62
SF-268 = tested on: SF-268

Measured: GI50

COc1c(O)cc2c3c(ccnc13)NC=C2
inactive: SK-OV-3 83.2 µM | OVCAR-5 > 100 µM | A498 > 100 µM | COLO 205 > 100 µM | UACC-62 > 100 µM | DU-145 > 100 µM | TK-10 > 100 µM | UACC-257 > 100 µM | MOLT-4 3.25 µM | LOX IMVI 61.1 µM | SK-MEL-5 > 100 µM | HT-29 16.9 µM | 786-0 41.9 µM | SW-620 68.2 µM | MDA-MB-231 35.6 µM | KM12 > 100 µM | MCF7 26.7 µM | NCI-H23 > 100 µM

CCCCCCCC/C=C\CCCCCCC(F)C(=O)O (stereo unspecified)
inactive: SK-OV-3 > 12.5 µM | OVCAR-5 > 12.5 µM | A498 > 12.5 µM | COLO 205 > 12.5 µM | HOP-62 > 12.5 µM | DU-145 > 12.5 µM | TK-10 > 12.5 µM | UACC-257 > 12.5 µM | MOLT-4 > 12.5 µM | LOX IMVI > 12.5 µM | SK-MEL-5 > 12.5 µM | HT-29 > 12.5 µM | 786-0 > 12.5 µM | SW-620 > 12.5 µM | MDA-MB-231 > 12.5 µM | KM12 > 12.5 µM | MCF7 > 12.5 µM | SF-268 > 12.5 µM | NCI-H23 > 12.5 µM

CC(C)(C)/C(=N\Nc1nc2ccccc2[nH]1)c1ccccn1
inactive: SK-OV-3 > 100 µM | A498 > 100 µM | COLO 205 33 µM | UACC-62 > 100 µM | HOP-62 > 100 µM | DU-145 95.9 µM | TK-10 24.7 µM | UACC-257 > 100 µM | MOLT-4 59.6 µM | LOX IMVI > 100 µM | SK-MEL-5 87.9 µM | HT-29 26.2 µM | 786-0 > 100 µM | SW-620 65.2 µM | MDA-MB-231 > 100 µM | KM12 86.5 µM | MCF7 24.9 µM | SF-268 > 100 µM | NCI-H23 82.8 µM

N#C/C(=C\c1cn(Cc2ccccc2)c2ccccc12)c1nn(-c2ccccc2)c(N)c1C#N
inactive: SK-OV-3 15.2 µM | OVCAR-5 18.8 µM | A498 16.7 µM | COLO 205 20.1 µM | UACC-62 10.8 µM | DU-145 11.1 µM | TK-10 15.8 µM | UACC-257 20.1 µM | MOLT-4 26.1 µM | LOX IMVI 32.2 µM | SK-MEL-5 11 µM | HT-29 11.3 µM | 786-0 7.83 µM | SW-620 14.8 µM | MDA-MB-231 4.13 µM | KM12 26.1 µM | MCF7 28.2 µM | SF-268 24.9 µM | NCI-H23 14.2 µM

O=S(=O)(O)c1cc(/N=N/c2cc(S(=O)(=O)O)c3ccccc3c2O)ccc1/C=C/c1ccc(/N=N/c2cc(S(=O)(=O)O)c3ccccc3c2O)cc1S(=O)(=O)O
inactive: SK-OV-3 > 630 µM | OVCAR-5 146 µM | A498 > 100 µM | UACC-62 > 312 µM | HOP-62 > 668 µM | DU-145 303 µM | TK-10 24.9 µM | UACC-257 > 291 µM | MOLT-4 22.8 µM | LOX IMVI > 305 µM | SK-MEL-5 86.7 µM | HT-29 > 457 µM | 786-0 > 684 µM | SW-620 > 605 µM | MDA-MB-231 27.3 µM | MCF7 310 µM | SF-268 > 800 µM | NCI-H23 > 537 µM

Nc1ncnc2ccc(Sc3ccc4ncnc(N)c4c3)cc12
inactive: SK-OV-3 > 100 µM | OVCAR-5 > 100 µM | A498 > 100 µM | COLO 205 > 100 µM | UACC-62 > 100 µM | HOP-62 > 100 µM | DU-145 > 100 µM | TK-10 > 100 µM | UACC-257 > 100 µM | MOLT-4 > 100 µM | LOX IMVI > 100 µM | SK-MEL-5 > 100 µM | HT-29 > 100 µM | 786-0 > 100 µM | SW-620 > 100 µM | MDA-MB-231 > 100 µM | KM12 > 100 µM | MCF7 > 100 µM | SF-268 > 100 µM

O=CC(NC(=O)N(CCCl)N=O)C(O)C(O)C(O)CO (stereo unspecified)
inactive: SK-OV-3 > 1160 µM | OVCAR-5 1140 µM | A498 1120 µM | COLO 205 > 1250 µM | UACC-62 47 µM | HOP-62 136 µM | DU-145 553 µM | TK-10 > 1250 µM | UACC-257 1050 µM | MOLT-4 159 µM | SK-MEL-5 425 µM | HT-29 > 1250 µM | 786-0 56.6 µM | SW-620 832 µM | MDA-MB-231 > 1100 µM | KM12 > 1250 µM | MCF7 948 µM | SF-268 114 µM | NCI-H23 993 µM
